For 27 compounds, IC50 results are on record in patent publication US20250313548A1 (Actio Biosciences, Inc., priority 2023, published 2025).

Each structure is given as a SMILES string.

Sequence of human, KCNT1 (Q5JUK3 whole entry): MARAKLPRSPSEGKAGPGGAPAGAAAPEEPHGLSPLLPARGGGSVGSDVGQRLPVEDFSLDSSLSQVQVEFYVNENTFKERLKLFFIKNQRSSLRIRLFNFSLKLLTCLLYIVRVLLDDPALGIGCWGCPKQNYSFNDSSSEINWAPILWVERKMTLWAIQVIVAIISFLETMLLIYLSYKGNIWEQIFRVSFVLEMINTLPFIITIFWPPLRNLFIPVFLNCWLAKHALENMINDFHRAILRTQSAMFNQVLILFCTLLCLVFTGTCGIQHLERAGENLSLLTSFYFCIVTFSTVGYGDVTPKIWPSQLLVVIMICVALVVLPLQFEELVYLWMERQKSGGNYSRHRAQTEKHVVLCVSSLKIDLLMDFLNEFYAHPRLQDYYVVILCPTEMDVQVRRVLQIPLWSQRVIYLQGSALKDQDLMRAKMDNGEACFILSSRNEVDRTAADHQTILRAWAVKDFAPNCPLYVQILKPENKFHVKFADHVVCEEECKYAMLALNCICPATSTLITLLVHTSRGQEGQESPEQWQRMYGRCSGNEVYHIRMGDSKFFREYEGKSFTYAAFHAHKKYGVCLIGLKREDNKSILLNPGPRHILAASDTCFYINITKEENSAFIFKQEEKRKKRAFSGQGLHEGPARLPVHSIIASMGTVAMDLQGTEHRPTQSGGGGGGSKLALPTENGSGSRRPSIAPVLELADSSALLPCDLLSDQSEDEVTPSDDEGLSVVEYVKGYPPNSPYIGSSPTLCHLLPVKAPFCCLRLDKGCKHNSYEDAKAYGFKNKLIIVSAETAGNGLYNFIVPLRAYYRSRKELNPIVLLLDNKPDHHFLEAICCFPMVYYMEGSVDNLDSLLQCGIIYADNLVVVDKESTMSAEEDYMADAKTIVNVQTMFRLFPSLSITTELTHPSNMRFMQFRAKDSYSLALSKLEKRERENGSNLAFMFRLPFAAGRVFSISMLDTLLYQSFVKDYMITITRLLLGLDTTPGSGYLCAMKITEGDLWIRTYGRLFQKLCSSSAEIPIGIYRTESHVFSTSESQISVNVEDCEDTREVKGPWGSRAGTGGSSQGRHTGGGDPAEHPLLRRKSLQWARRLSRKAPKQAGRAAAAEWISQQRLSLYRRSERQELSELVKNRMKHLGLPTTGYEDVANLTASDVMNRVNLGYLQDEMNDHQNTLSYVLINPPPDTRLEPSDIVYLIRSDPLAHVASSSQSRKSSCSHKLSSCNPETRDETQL

This test deals with human, KCNT1 (Homo sapiens (Human), UniProt Q5JUK3). As to the kind of experiment: FLIPR Tl/K Flux Assay. It is filed as cell-based. Conditions: HEK293 cells stably expressing human KCNT1; Tl+ flux stimulated with EC80 of agonist Loxapine. Put shortly:
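HEK293 cells stably expressing human KCNT1 were loaded with FLIPR potassium dye in HEPES/HBSS pH 7.4 with 5 mM probenecid, 1 h at 25 °C, then given test compound for 30 min at 25 °C. Tl+ flux was triggered with chloride-free buffer containing Tl+ and EC80 loxapine and read 160 s. IC50 came from Hill fits of % inhibition.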
The IC50 is the concentration that inhibits the measured activity by half. Higher therefore signals weaker potency in that assay. `O=C(NC1CCCc2nn(-c3ccnc(C(F)(F)F)c3)cc21)c1ccccn1` (racemic) [Compound I-31, (rac)-N-(2-(2-(Trifluoromethyl)pyridin-4-yl)-4,5,6,7-tetrahydro-2H-indazol-4-yl)picolinamide] displayed an IC50 of more than 1000 nM. The compound `N#Cc1cccc(C(=O)N[C@H]2CCCn3nc(-c4ccnc(C(F)(F)F)c4)cc32)c1` [Compound I-128a, (S)-3-Cyano-N-(2-(2-(trifluoromethyl)pyridin-4-yl)-4,5,6,7-tetrahydropyrazolo[1,5-a]pyridin-4-yl)benzamide] displayed an IC50 of less than 250 nM. With `COc1nc(C(=O)N[C@H]2CCn3nc(-c4ccnc(C(F)(F)F)c4)cc32)n(C)n1` [Compound I-210a, (S)-3-Methoxy-1-methyl-N-(2-(2-(trifluoromethyl)pyridin-4-yl)-5,6-dihydro-4H-pyrrolo[1,2-b]pyrazol-4-yl)-1H-1,2,4-triazole-5-carboxamide], the IC50 was less than 250 nM. In the case of `O=C(N[C@H]1CCCn2nc(-c3ccnc(C(F)(F)F)c3)cc21)c1ccnc(C(F)(F)F)n1` [Compound I-327a, (S)-2-(Trifluoromethyl)-N-(2-(2-(trifluoromethyl)pyridin-4-yl)-4,5,6,7-tetrahydropyrazolo[1,5-a]pyridin-4-yl)pyrimidine-4-carboxamide] it was less than 250 nM.

`N#Cc1cccc(C(=O)N[C@H]2CCc3nn(-c4ccnc(C(F)(F)F)c4)cc32)c1` [Compound I-454a] had an IC50 of less than 250 nM.

`Cn1nc(C(F)(F)F)cc1C(=O)N[C@H]1CCCn2nc(-c3ccnc(C4CC4)c3)nc21` [Compound I-201a, (S)—N-(2-(2-Cyclopropylpyridin-4-yl)-5,6,7,8-tetrahydro-[1,2,4]triazolo[1,5-a]pyridin-8-yl)-1-methyl-3-(trifluoromethyl)-1H-pyrazole-5-carboxamide] had an IC50 of less than 250 nM.

In the case of `CCOc1cc(C(=O)N[C@H]2CCn3nc(-c4ccnc(C(F)(F)F)c4)cc32)ccn1` [Compound I-264a], the IC50 is less than 250 nM. As for `COc1cc(-c2nc3c(o2)[C@@H](NC(=O)c2ccnc(OC(F)(F)F)c2)CCC3)ccn1` [Compound I-135a, (S)-N-(2-(2-Methoxypyridin-4-yl)-4,5,6,7-tetrahydrobenzo[d]oxazol-7-yl)-2-(trifluoromethoxy)isonicotinamide], the figure is less than 250 nM; as for `CCc1cc(F)cc(C(=O)N[C@@H]2CCc3nn(-c4ccnc(C(F)(F)F)c4)cc32)c1` [Compound I-127b], less than 250 nM. As for `Cn1nc(C(F)(F)F)cc1C(=O)N[C@H]1CCc2nn(-c3cc(C4CC4)ncc3F)cc21` [Compound I-190a, (S)-N-(2-(2-Cyclopropyl-5-fluoropyridin-4-yl)-2,4,5,6-tetrahydrocyclopenta[c]pyrazol-4-yl)-1-methyl-3-(trifluoromethyl)-1H-pyrazole-5-carboxamide], the figure is less than 250 nM; as for `CCOc1cc(-n2cc3c(n2)CCCC3NC(=O)c2cc(C)cc(C(F)(F)F)c2)ccn1` (racemic) [Compound I-15, (rac)-N-(2-(2-Ethoxypyridin-4-yl)-4,5,6,7-tetrahydro-2H-indazol-4-yl)-3-methyl-5-(trifluoromethyl)benzamide], less than 250 nM. In the case of `COc1cc(-c2cc3n(n2)CC[C@@H]3NC(=O)c2cn(C(F)(F)F)nc2C)ccn1` [Compound I-240a, (S)-N-(2-(2-Methoxypyridin-4-yl)-5,6-dihydro-4H-pyrrolo[1,2-b]pyrazol-4-yl)-3-methyl-1-(trifluoromethyl)-1H-pyrazole-4-carboxamide] it was less than 250 nM; in that of `COc1cc(-c2nc3c(o2)CCC[C@@H]3NC(=O)c2cncc(C(F)(F)F)n2)ccn1` [Compound I-211a, (S)-N-(2-(2-Methoxypyridin-4-yl)-4,5,6,7-tetrahydrobenzo[d]oxazol-4-yl)-6-(trifluoromethyl)pyrazine-2-carboxamide], less than 250 nM. Compound `O=C(N[C@@H]1CCCCc2nn(-c3ccnc(C4CC4)c3)cc21)c1cccc(C(F)(F)F)c1` [Compound I-60b] showed an IC50 of 500 to 1000 nM. As for `O=C(N[C@H]1CCCn2nc(-c3ccnc(C4CC4)c3)cc21)c1ccnc(OC(F)(F)F)c1` [Compound I-193a, (S)-N-(2-(2-Cyclopropylpyridin-4-yl)-4,5,6,7-tetrahydropyrazolo[1,5-a]pyridin-4-yl)-2-(trifluoromethoxy)isonicotinamide], the figure is less than 250 nM; as for `Cn1nc(C(F)(F)F)cc1C(=O)N[C@H]1CCCn2nc(-c3ccnc(C4CCC4)c3)cc21` [Compound I-377a], less than 250 nM; as for `Cn1nc(C(F)(F)F)cc1C(=O)N[C@@H]1CCCCn2nc(-c3ccnc(C(F)(F)F)c3)cc21` [Compound I-385b], 250 to 500 nM. The compound `Cn1nc(C(F)(F)F)cc1C(=O)N[C@H]1CCCc2nn(-c3ccnc(C(F)(F)F)c3)cc21` [Compound I-4a, (S)-1-Methyl-3-(trifluoromethyl)-N-(2-(2-(trifluoromethyl)pyridin-4-yl)-4,5,6,7-tetrahydro-2H-indazol-4-yl)-1H-pyrazole-5-carboxamide] had an IC50 of less than 250 nM.

`O=C(N[C@H]1CCCn2nc(-c3ccnc(C(F)(F)F)c3)cc21)c1cn(C2CC2)nn1` [Compound I-401a] came in with an IC50 of more than 1000 nM. In the case of `O=C(N[C@H]1CCCc2nc(-c3cc(C4CC4)ncc3F)oc21)c1ccnc(OC(F)(F)F)c1` [Compound I-158a, (S)-N-(2-(2-Cyclopropyl-5-fluoropyridin-4-yl)-4,5,6,7-tetrahydrobenzo[d]oxazol-7-yl)-2-(trifluoromethoxy)isonicotinamide] it was less than 250 nM.

In the case of `COc1cc(-c2cc3n(n2)CC[C@@H]3NC(=O)c2cccc(C(F)(F)F)c2)ccn1` [Compound I-286a, (S)-N-(2-(2-Methoxypyridin-4-yl)-5,6-dihydro-4H-pyrrolo[1,2-b]pyrazol-4-yl)-3-(trifluoromethyl)benzamide], the IC50 was less than 250 nM. In the case of `Cn1nc(C(F)(F)F)cc1C(=O)NC1(C)CCCc2nn(-c3ccnc(C(F)(F)F)c3)cc21` (stereo not drawn) [Compound I-51] it was more than 1000 nM; in that of `O=C(N[C@H]1CCCn2nc(-c3ccnc(C(F)(F)F)c3)cc21)c1cnn(CC(F)(F)F)c1` [Compound I-435a], more than 1000 nM. As for `CC1(C)CC(C(=O)N[C@H]2CCn3nc(-c4cc(C(F)(F)F)ncc4F)cc32)C1` [Compound I-523a, (S)-N-(2-(5-Fluoro-2-(trifluoromethyl)pyridin-4-yl)-5,6-dihydro-4H-pyrrolo[1,2-b]pyrazol-4-yl)-3,3-dimethylcyclobutane-1-carboxamide], the figure is less than 250 nM. As for `Cn1ncnc1C(=O)N[C@H]1CCCc2oc(-c3ccnc(C4CC4)c3)nc21` [Compound I-228a, (S)-N-(2-(2-Cyclopropylpyridin-4-yl)-4,5,6,7-tetrahydrobenzo[d]oxazol-4-yl)-1-methyl-1H-1,2,4-triazole-5-carboxamide], the figure is more than 1000 nM; as for `O=C(N[C@H]1CCn2nc(-c3ccnc(C4CC4)c3)cc21)C12CC(C(F)(F)F)(C1)C2` [Compound I-494a, (S)-N-(2-(2-Cyclopropylpyridin-4-yl)-5,6-dihydro-4H-pyrrolo[1,2-b]pyrazol-4-yl)-3-(trifluoromethyl)bicyclo[1.1.1]pentane-1-carboxamide], less than 250 nM. Turning to `O=C(N[C@H]1CCCn2nc(-c3ccnc(C(F)(F)F)c3)cc21)c1ccnn1CC(F)F` [Compound I-403a], the IC50 is less than 250 nM.
